# US4996225A, “Tri-phenyl alkane derivatives and their oestrogenic, anti-oestrogenic and progestanic uses” (Farmos Group Ltd., priority 1982, dated 1991)
# “Also recorded” adds a separate entry of the source.
# Columns and labels:
# [1] = molecular target: T1, oestrogen receptors (Rattus norvegicus, UniProt P06211); experiment: affinity for oestrogen receptors, competition with 3H-17-β-estradiol in rat uterus cytosol (dextran-charcoal method); format: binding; conditions: read-out: Estrogen receptor affinity (concentration of compound where 50% competition (inhibition) with 3H-estradiol occurred)
# T1 construct: rat uterus cytosol preparation; from tissue; host or cells: rat uterus cytosol
# T1 sequence (P06211 1-600): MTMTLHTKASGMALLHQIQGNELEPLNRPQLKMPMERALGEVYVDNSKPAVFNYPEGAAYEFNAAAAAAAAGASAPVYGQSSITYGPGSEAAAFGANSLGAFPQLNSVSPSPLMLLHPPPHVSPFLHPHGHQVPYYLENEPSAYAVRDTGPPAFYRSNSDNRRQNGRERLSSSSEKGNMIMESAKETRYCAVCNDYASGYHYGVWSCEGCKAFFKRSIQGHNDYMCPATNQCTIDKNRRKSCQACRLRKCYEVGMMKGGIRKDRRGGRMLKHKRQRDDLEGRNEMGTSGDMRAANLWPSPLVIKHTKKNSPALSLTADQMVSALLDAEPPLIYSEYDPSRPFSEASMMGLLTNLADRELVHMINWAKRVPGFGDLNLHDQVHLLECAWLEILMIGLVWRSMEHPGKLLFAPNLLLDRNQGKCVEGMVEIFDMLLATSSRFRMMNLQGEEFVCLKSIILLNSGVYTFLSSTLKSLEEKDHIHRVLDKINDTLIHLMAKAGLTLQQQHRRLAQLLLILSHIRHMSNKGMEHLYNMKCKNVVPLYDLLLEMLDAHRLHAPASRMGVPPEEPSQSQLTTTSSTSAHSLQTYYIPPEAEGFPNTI
# Description: The affinity of the new compounds for oestrogen receptors was determined by the ability to compete with ^3 H-labelled 17-β-estradiol in rat uterus cytosol preparation. After incubation, receptor-bound and receptor-unbound ligands were separated by a known dextrancharcoal method.
# [2] = test system: immature mouse uterus; experiment: oestrogenic effect, uterus weight of immature mice; format: in vivo; conditions: up to 5 mg/kg
# [3] = test system: estradiol induced weight increase in immature mouse uterus; experiment: antiestrogenic effect, inhibition of oestrogen-induced uterus weight increase in immature mice; format: in vivo
# [4] = test system: immature mouse uterus; experiment: progestanic effect, uterus weight of immature mice (alone or with medroxyprogesterone acetate); format: in vivo; design: reduction in the weight of a mouse uterus, given alone / reduction in the weight of uterus with medroxyprogesterone / reduction in the weights of mice uterus, given alone: concentration or dose not given beside the values
# [5] = test system: MCF-7 cell line (human mammary adenocarcinoma); experiment: anti-tumour effect in vitro, growth of MCF-7 cell line (bioluminescence assay, intracellular ATP); format: cell-based; conditions: read-out: Antitumour effect against MCF-7 cell line (IC50 = concentration of compound where 50% inhibition of cell growth could be seen)
# Description: The anti-tumour effect was studied in vitro as follows:
# The amount of living cells after 4 h, 24 h and 48 h incubations were determined by bioluminescence assay (intracellular ATP determination).
# inhibition of cell growth could be seen.
# [6] = test system: DMBA-induced rat mammary adenocarcinomas; experiment: antitumour effect in vivo against DMBA-induced rat mammary adenocarcinoma; conditions: compared with compound 7
# [7] = test system: rat prostatic carcinoma; experiment: antitumour effect against transplantable prostatic carcinoma; format: in vivo; conditions: 1 mg/kg, 12 days' treatment
# Source text: The anti-tumour effect was investigated in vivo against DMBA-induced rat mammary adenocarcinomas, transplantable mammary and ovarial adenocarcinoma and transplantable prostatic squamous cell carcinoma by the following methods: The activity of the molecules against other tumours was studied by administering the molecules by stomach tube to animals implanted with transplantable uterus sarcoma (mice) or prostatic adenocarcinoma (rats). Daily or twice weekly administration schedules were employed. NMRI mice (about 20 g, females) and Fischer 344 rats (about 200 g, males) were used. Estramustine phosphate served as positive control. Transplantable rat mammary adenocarcinoma was developed by inoculating pieces of DMBA-induced carcinomas subcutaneously to healthy mature female rats. A tumour which expressed malignant growth was selected for further transplantations. Other transplantable tumours were inoculated subcutaneously as washed cell suspension (10^7 cells/animal).
# [8] = with medroxyprogesterone 0.06 mg/kg
smiles,measurement,setting,value
"Oc1ccc([C@@]2(c3ccccc3)OCC[C@@H]2c2ccccc2)cc1 (relative stereo) [Compound 2, 2,3-diphenyl-2-(4-hydroxyphenyl)tetrahydrofuran]",IC50,[1],100 to 1000 nM
same,estrogenic effect of their own (in words),[2],no estrogenic effect of their own; also recorded: no antiestrogenic or estrogenic effect of its own
same,antiestrogenic effect of its own (in words),[3]; up to 5 mg/kg,no antiestrogenic or estrogenic effect of its own
same,effect with estradiol (in words),[3]; with estradiol 0.05 mg/kg,no synergism
same,decrease of weight of mouse uterus,[4]; 0.05 mg/kg,50%
same,effect given alone: progestanic (in words),[4]; given alone,progestanic
same,"reduction in the weights of mice uterus, given alone","[4]; given alone, Table 2A",50%
same,progestanic effect (in words),[4]; immature mouse uterus,could purely be considered to be due to its progestanic effect
same,interaction with medroxyprogesterone (in words),[4]; with medroxyprogesterone,synergistic effect with medroxyprogesterone
same,effect with medroxyprogesterone (in words),[4]; [8],synergistic
same,"reduction in the weights of mice uterus with medroxyprogesterone, compared to control",[4]; [8],53%
same,IC50,[5],5000 to 10000 nM
same,antitumour effect against DMBA-induced mammary cancer (in words),[6],Antitumour effect less than that of compound 7
same,size of prostatic tumour smaller than that of control,[7],29%
